{"source": "the kinase profiling compilation of Christmann-Franck et al. (2016)", "assay_in_all_cases": "KINOMEscan competition binding", "conditions_in_all_cases": "compound 10.0 µM", "key": {"NLK (human)": {"target": "NLK (human) (UniProt Q9UBE8)", "sequence (Q9UBE8 whole entry, looked up)": "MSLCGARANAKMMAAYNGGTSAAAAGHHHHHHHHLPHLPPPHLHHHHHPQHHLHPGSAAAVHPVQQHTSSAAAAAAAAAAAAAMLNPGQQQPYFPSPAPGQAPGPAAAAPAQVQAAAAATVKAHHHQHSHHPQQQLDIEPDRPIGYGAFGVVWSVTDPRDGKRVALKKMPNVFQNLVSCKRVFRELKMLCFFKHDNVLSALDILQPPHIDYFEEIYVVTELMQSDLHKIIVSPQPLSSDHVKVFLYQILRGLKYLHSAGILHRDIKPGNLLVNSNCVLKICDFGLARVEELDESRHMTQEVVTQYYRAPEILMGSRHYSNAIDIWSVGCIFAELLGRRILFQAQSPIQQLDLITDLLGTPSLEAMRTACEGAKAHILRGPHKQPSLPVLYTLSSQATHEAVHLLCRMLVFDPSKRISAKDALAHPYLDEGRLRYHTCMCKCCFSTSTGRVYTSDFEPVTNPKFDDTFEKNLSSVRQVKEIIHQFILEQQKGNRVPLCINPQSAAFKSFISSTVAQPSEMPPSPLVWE"}, "CSF1R (human)": {"target": "CSF1R (human) (UniProt P07333)"}, "NEK9 (human)": {"target": "NEK9 (human) (UniProt Q8TD19)"}, "TGFBR1 (human)": {"target": "TGFBR1 (human) (UniProt P36897)", "sequence (P36897 whole entry, looked up)": "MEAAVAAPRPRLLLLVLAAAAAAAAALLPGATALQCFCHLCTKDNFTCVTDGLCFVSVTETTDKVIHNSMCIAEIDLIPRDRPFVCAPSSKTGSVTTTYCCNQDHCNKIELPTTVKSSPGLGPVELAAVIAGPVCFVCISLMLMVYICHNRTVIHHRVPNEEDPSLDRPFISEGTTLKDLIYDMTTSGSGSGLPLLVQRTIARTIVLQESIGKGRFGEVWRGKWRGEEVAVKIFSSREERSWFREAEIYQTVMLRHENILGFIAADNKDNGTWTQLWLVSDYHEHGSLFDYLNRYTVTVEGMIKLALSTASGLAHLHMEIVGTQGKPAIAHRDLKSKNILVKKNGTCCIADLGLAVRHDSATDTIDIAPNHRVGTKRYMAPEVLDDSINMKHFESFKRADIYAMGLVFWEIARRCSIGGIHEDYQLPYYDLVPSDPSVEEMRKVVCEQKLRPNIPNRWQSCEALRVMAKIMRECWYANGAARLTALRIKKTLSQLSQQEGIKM"}, "ROCK2 (human)": {"target": "ROCK2 (human) (UniProt O75116)"}, "IRAK1 (human)": {"target": "IRAK1 (human) (UniProt P51617)"}, "[1]": {"test_system": "FLT3 (human), P36888 [D835Y]"}, "WEE1 (human)": {"target": "WEE1 (human) (UniProt P30291)", "sequence (P30291 whole entry, looked up)": "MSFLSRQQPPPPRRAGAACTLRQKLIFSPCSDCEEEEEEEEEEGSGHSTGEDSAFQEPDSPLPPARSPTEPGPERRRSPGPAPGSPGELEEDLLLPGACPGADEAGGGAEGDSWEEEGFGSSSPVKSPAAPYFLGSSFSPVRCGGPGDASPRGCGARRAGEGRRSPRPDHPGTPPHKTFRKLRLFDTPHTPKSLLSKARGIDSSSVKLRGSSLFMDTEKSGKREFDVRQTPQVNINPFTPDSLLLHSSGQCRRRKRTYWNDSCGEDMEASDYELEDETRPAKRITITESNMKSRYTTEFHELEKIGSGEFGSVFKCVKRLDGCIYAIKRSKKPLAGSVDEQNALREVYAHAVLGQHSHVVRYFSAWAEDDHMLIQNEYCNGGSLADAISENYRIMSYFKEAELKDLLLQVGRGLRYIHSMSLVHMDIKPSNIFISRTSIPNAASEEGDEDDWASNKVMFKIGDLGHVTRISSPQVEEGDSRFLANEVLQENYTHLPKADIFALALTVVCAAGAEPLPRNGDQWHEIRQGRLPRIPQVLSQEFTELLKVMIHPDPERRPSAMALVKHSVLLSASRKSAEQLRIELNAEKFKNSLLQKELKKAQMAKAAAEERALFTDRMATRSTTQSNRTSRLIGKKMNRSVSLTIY"}, "CDK4 CCND3 (human)": {"target": "CDK4 CCND3 (human) (UniProt P11802+P30281)"}, "TBK1 (human)": {"target": "TBK1 (human) (UniProt Q9UHD2)"}, "STK38L (human)": {"target": "STK38L (human) (UniProt Q9Y2H1)"}, "MERTK (human)": {"target": "MERTK (human) (UniProt Q12866)"}, "DDR2 (human)": {"target": "DDR2 (human) (UniProt Q16832)"}, "[2]": {"test_system": "EGFR (human), P00533 [G719S]"}, "FRK (human)": {"target": "FRK (human) (UniProt P42685)", "sequence (P42685 whole entry, looked up)": "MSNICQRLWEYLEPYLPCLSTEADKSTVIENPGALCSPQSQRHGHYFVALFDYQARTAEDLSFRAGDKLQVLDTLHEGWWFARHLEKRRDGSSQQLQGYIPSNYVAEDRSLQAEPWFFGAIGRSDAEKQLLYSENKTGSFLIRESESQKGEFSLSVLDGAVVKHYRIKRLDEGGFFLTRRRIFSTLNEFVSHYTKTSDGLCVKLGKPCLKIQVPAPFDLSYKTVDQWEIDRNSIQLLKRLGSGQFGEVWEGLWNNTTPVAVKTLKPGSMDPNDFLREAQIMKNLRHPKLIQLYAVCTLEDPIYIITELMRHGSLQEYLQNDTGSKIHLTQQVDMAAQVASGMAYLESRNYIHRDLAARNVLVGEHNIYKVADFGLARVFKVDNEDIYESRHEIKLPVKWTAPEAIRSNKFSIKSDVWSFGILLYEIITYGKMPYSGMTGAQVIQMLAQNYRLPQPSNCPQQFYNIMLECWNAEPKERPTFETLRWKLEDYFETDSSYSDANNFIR"}, "OXSR1 (human)": {"target": "OXSR1 (human) (UniProt O95747)", "sequence (O95747 whole entry, looked up)": "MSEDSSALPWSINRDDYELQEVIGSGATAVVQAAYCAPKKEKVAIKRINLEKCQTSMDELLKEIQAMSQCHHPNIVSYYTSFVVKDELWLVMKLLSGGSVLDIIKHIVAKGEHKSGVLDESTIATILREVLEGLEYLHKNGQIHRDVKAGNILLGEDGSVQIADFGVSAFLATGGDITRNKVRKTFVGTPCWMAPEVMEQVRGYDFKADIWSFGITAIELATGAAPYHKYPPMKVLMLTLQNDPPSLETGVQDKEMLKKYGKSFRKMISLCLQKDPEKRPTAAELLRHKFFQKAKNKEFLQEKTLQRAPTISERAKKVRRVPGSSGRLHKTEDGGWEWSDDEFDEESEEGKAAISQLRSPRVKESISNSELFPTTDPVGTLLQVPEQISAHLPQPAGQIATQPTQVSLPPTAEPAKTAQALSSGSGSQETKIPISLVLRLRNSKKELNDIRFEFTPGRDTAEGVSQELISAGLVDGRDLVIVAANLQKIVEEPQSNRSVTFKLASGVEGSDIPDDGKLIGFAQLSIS"}, "ULK2 (human)": {"target": "ULK2 (human) (UniProt Q8IYT8)"}, "[3]": {"target": "JAK1 JH2 pseudokinase (human) (UniProt P23458)"}, "TESK1 (human)": {"target": "TESK1 (human) (UniProt Q15569)"}, "MAP3K11 (human)": {"target": "MAP3K11 (human) (UniProt Q16584)"}, "STK38 (human)": {"target": "STK38 (human) (UniProt Q15208)"}, "ROCK1 (human)": {"target": "ROCK1 (human) (UniProt Q13464)"}, "[4]": {"test_system": "FLT3 (human), P36888 [D835H]"}, "[5]": {"test_system": "FLT3 (human), P36888 [N841I]"}, "MAP3K6 (human)": {"target": "MAP3K6 (human) (UniProt O95382)"}, "CDK16 (human)": {"target": "CDK16 (human) (UniProt Q00536)"}, "HUNK (human)": {"target": "HUNK (human) (UniProt P57058)"}, "MAP3K13 (human)": {"target": "MAP3K13 (human) (UniProt O43283)", "sequence (O43283 whole entry, looked up)": "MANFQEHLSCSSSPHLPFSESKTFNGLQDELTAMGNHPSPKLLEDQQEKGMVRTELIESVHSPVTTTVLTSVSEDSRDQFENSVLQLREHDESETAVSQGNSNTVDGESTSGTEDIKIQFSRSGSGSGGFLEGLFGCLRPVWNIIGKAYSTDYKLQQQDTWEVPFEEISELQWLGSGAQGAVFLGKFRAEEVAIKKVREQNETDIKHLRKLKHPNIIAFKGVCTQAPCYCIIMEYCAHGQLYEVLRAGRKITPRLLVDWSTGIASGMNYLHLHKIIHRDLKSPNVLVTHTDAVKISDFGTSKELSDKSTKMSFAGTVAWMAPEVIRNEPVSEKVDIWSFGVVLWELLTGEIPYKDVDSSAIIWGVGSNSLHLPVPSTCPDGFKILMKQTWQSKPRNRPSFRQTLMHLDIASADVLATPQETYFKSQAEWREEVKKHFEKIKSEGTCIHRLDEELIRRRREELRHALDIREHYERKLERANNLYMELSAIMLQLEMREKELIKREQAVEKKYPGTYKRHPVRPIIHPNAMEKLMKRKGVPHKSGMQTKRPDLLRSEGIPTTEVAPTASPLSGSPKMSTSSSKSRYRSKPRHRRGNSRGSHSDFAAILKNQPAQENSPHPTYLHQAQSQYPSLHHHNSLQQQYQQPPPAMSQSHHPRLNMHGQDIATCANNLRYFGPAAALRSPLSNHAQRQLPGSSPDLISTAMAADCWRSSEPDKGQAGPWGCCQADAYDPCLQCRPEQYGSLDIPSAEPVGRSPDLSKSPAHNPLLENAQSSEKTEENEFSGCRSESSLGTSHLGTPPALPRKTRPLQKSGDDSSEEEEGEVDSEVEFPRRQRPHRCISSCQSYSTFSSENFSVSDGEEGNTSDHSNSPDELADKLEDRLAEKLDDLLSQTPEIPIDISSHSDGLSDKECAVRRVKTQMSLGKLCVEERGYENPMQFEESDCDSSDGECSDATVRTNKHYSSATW"}, "IKBKE (human)": {"target": "IKBKE (human) (UniProt Q14164)"}, "MAPK13 (human)": {"target": "MAPK13 (human) (UniProt O15264)", "sequence (O15264 whole entry, looked up)": "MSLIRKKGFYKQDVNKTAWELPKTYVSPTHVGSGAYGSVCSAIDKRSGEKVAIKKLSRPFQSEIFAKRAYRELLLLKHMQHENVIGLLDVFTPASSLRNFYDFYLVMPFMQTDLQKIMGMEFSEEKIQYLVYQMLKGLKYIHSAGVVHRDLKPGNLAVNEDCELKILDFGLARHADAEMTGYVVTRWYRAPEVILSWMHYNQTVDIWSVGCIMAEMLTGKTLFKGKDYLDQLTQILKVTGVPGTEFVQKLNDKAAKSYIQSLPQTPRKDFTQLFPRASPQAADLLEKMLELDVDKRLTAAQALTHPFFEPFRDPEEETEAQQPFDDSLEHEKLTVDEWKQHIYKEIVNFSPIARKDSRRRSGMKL"}, "ZAP70 (human)": {"target": "ZAP70 (human) (UniProt P43403)"}, "LATS1 (human)": {"target": "LATS1 (human) (UniProt O95835)"}, "EPHB6 (human)": {"target": "EPHB6 (human) (UniProt O15197)"}, "ACVR2A (human)": {"target": "ACVR2A (human) (UniProt P27037)", "sequence (P27037 whole entry, looked up)": "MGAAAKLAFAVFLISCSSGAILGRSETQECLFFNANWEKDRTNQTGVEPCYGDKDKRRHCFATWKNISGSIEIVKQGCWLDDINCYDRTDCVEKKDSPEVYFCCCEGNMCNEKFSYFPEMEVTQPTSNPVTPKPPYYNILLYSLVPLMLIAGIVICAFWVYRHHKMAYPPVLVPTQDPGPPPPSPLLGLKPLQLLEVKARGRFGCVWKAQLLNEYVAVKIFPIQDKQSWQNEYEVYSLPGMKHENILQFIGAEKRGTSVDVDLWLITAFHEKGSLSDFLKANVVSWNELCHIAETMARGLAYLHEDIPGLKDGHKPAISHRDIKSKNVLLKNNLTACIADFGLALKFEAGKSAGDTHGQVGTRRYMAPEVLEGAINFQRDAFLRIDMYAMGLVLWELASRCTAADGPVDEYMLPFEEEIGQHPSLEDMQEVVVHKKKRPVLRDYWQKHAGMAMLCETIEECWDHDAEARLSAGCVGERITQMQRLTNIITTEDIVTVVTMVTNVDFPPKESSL"}, "RPS6KA3 KD1 (human)": {"target": "RPS6KA3 KD1 (human) (UniProt P51812)"}, "GRK7 (human)": {"target": "GRK7 (human) (UniProt Q8WTQ7)"}, "MAP4K3 (human)": {"target": "MAP4K3 (human) (UniProt Q8IVH8)"}, "CSNK1G3 (human)": {"target": "CSNK1G3 (human) (UniProt Q9Y6M4)", "sequence (Q9Y6M4 whole entry, looked up)": "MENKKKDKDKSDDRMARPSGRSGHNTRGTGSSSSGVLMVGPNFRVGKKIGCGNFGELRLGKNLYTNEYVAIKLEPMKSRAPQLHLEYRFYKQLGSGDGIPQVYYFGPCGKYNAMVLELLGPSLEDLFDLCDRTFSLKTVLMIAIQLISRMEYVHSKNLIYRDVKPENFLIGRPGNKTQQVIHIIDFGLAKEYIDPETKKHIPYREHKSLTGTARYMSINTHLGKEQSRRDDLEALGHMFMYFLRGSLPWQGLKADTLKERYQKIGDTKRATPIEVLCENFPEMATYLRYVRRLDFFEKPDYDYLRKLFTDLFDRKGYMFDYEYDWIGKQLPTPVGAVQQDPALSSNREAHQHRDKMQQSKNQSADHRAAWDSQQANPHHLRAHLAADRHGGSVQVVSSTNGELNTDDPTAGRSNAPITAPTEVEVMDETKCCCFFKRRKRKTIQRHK"}, "BTK (human)": {"target": "BTK (human) (UniProt Q06187)"}, "NIM1 (human)": {"target": "NIM1 (human) (UniProt Q8IY84)"}, "[6]": {"test_system": "BRAF (human), P15056 [V600E]"}, "PAK7 (human)": {"target": "PAK7 (human) (UniProt Q9P286)"}}, "data": [{"smiles": "Cc1cc([C@@H](C)Nc2ccccc2C(=O)O)c2nc(N3CCOCC3)cc(=O)n2c1", "values": [{"measurement": "kinase still bound, per cent of control", "setting": "NLK (human)", "value": 100, "unit": "%"}, {"measurement": "kinase still bound, per cent of control", "setting": "CSF1R (human)", "value": 55, "unit": "%"}, {"measurement": "kinase still bound, per cent of control", "setting": "NEK9 (human)", "value": 94, "unit": "%"}, {"measurement": "kinase still bound, per cent of control", "setting": "TGFBR1 (human)", "value": 100, "unit": "%"}, {"measurement": "kinase still bound, per cent of control", "setting": "ROCK2 (human)", "value": 89, "unit": "%"}, {"measurement": "kinase still bound, per cent of control", "setting": "IRAK1 (human)", "value": 100, "unit": "%"}, {"measurement": "kinase still bound, per cent of control", "setting": "[1]", "value": 24, "unit": "%"}, {"measurement": "kinase still bound, per cent of control", "setting": "WEE1 (human)", "value": 88, "unit": "%"}, {"measurement": "kinase still bound, per cent of control", "setting": "CDK4 CCND3 (human)", "value": 62, "unit": "%"}, {"measurement": "kinase still bound, per cent of control", "setting": "TBK1 (human)", "value": 100, "unit": "%"}, {"measurement": "kinase still bound, per cent of control", "setting": "STK38L (human)", "value": 92, "unit": "%"}, {"measurement": "kinase still bound, per cent of control", "setting": "MERTK (human)", "value": 100, "unit": "%"}, {"measurement": "kinase still bound, per cent of control", "setting": "DDR2 (human)", "value": 100, "unit": "%"}, {"measurement": "kinase still bound, per cent of control", "setting": "[2]", "value": 100, "unit": "%"}, {"measurement": "kinase still bound, per cent of control", "setting": "FRK (human)", "value": 47, "unit": "%"}, {"measurement": "kinase still bound, per cent of control", "setting": "OXSR1 (human)", "value": 80, "unit": "%"}, {"measurement": "kinase still bound, per cent of control", "setting": "ULK2 (human)", "value": 100, "unit": "%"}, {"measurement": "kinase still bound, per cent of control", "setting": "[3]", "value": 100, "unit": "%"}, {"measurement": "kinase still bound, per cent of control", "setting": "TESK1 (human)", "value": 100, "unit": "%"}, {"measurement": "kinase still bound, per cent of control", "setting": "MAP3K11 (human)", "value": 95, "unit": "%"}, {"measurement": "kinase still bound, per cent of control", "setting": "STK38 (human)", "value": 84, "unit": "%"}, {"measurement": "kinase still bound, per cent of control", "setting": "ROCK1 (human)", "value": 90, "unit": "%"}, {"measurement": "kinase still bound, per cent of control", "setting": "[4]", "value": 32, "unit": "%"}, {"measurement": "kinase still bound, per cent of control", "setting": "[5]", "value": 26, "unit": "%"}, {"measurement": "kinase still bound, per cent of control", "setting": "MAP3K6 (human)", "value": 94, "unit": "%"}, {"measurement": "kinase still bound, per cent of control", "setting": "CDK16 (human)", "value": 100, "unit": "%"}, {"measurement": "kinase still bound, per cent of control", "setting": "HUNK (human)", "value": 94, "unit": "%"}, {"measurement": "kinase still bound, per cent of control", "setting": "MAP3K13 (human)", "value": 100, "unit": "%"}, {"measurement": "kinase still bound, per cent of control", "setting": "IKBKE (human)", "value": 100, "unit": "%"}, {"measurement": "kinase still bound, per cent of control", "setting": "MAPK13 (human)", "value": 100, "unit": "%"}, {"measurement": "kinase still bound, per cent of control", "setting": "ZAP70 (human)", "value": 72, "unit": "%"}, {"measurement": "kinase still bound, per cent of control", "setting": "LATS1 (human)", "value": 60, "unit": "%"}, {"measurement": "kinase still bound, per cent of control", "setting": "EPHB6 (human)", "value": 40, "unit": "%"}, {"measurement": "kinase still bound, per cent of control", "setting": "ACVR2A (human)", "value": 95, "unit": "%"}, {"measurement": "kinase still bound, per cent of control", "setting": "RPS6KA3 KD1 (human)", "value": 100, "unit": "%"}, {"measurement": "kinase still bound, per cent of control", "setting": "GRK7 (human)", "value": 100, "unit": "%"}, {"measurement": "kinase still bound, per cent of control", "setting": "MAP4K3 (human)", "value": 99, "unit": "%"}, {"measurement": "kinase still bound, per cent of control", "setting": "CSNK1G3 (human)", "value": 95, "unit": "%"}, {"measurement": "kinase still bound, per cent of control", "setting": "BTK (human)", "value": 80, "unit": "%"}, {"measurement": "kinase still bound, per cent of control", "setting": "NIM1 (human)", "value": 100, "unit": "%"}, {"measurement": "kinase still bound, per cent of control", "setting": "[6]", "value": 80, "unit": "%"}, {"measurement": "kinase still bound, per cent of control", "setting": "PAK7 (human)", "value": 92, "unit": "%"}]}]}
